From patent US6841519B1, “Isoxazoline derivatives and herbicides containing the same as the active ingredient” (Kumiai Chemical Industry Co., Ltd., priority 1999, dated 2005)

Experiments:
Format in all cases: in vivo
[1] = test system: Echinochloa crus-galli (L.) Beauv. var. crusgall (Ec); assay: Test for herbicidal effect by upland field soil treatment (Test Example 2), Ec
Procedure, shortened: (§1)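 Pre-emergence soil treatment: wettable powder diluted in water and sprayed on soil just sown with Ec and Se seeds, delivering 100 g active ingredient per 10 ares in 100 liters per 10 ares. Herbicidal effect was rated against a fixed scale 21 days later, after greenhouse growth.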

[2] = test system: Echinochloa oryzicola Vasing. (Eo); assay: Test for herbicidal effect by paddy field soil treatment (Test Example 1); settings: application amount (active ingredient) 100 g/10 a, examined at the 21st day from the treatment, index per Table 40
Procedure, shortened: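 Scored on a standard scale at day 21 in the greenhouse: herbicidal effect of wettable powder applied to flooded water (3 cm depth) at 100 g a.i./10 ares, one day after sowing Eo into puddled paddy soil.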

[3] = test system: Polygonum lapathifolium L. subsp. nodosum (Pers.) Kitam. (Po); assay: Test for herbicidal effect to broadleaf weeds by upland field soil treatment (Test Example 6), Po; settings: 25 g/10 a active ingredient, 30th day
Method: (§2) Test for herbicidal effect to broadleaf weeds by upland field soil treatment
(§3) An upland field soil was filled in a plastic pot of 80 cm^2. Seeds of Polygonum lapathifolium L. subsp. nodosum (Pers.) Kitam. (Po) and Chenopodium album L. (Ch) were sowed, followed by covering with the same soil. Wettable powders produced in accordance with the Formulation 1 were diluted with water and sprayed uniformly on the soil surface using a small sprayer, […] Then, breeding was made in a greenhouse. At the 30th day from the treatment, the herbicidal effect of each wettable powder was examined in accordance with the standard shown in Table 40.

[4] = test system: Setaria viridis (L.) Beauv. (Se); assay: Test for herbicidal effect by upland field soil treatment (Test Example 2), Se
Procedure, shortened: as §1

[5] = test system: Chenopodium album L. (Ch); assay: Test for herbicidal effect to broadleaf weeds by upland field soil treatment (Test Example 6), Ch; settings: 25 g/10 a active ingredient, 30th day
Method: as §2, §3

[6] = test system: Echinochloa crus-galli (L.) Beauv. var. crusgalli (Ec); assay: Test for herbicidal effect by upland foliage treatment (Test Example 3); settings: 100 g/10 a active ingredient, examined at 14th day
Procedure, shortened: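 Scored 14 days post-spray against a graded standard: greenhouse-grown Ec, 2 weeks old in upland soil, received whole-foliage application of diluted wettable powder (100 g active ingredient per 10 ares, spray volume 100 L per 10 ares).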

[7] = test system: Scirpus juncoides Roxb. subsp. juncoides Roxb. (Sc); assay: Test for herbicidal effect during breeding period by paddy field water treatment (Test Example 5), Sc; settings: paddy field water treatment at 2-leaf stage, 25 g/10 a active ingredient, 30th day
Method: (§4) [table] <Test Example 5> Test For Herbicidal Effect During Breeding Period By Paddy Field Water Treatment A paddy field soil was filled in a plastic pot of 100 cm^2 and subjected to puddling. Seeds of Monochoria vaginalis Presl (Mo) and Scirpus juncoides Roxb. subsp. juncoides Roxb. (Sc) were sowed; water was filled in a depth of 3 cm; and breeding was made. When Mo reached a 1-leaf stage and Sc reached a 2-leaf stage, wettable powders produced in accordance with the Formulation 1 were diluted with water and dropped on the water surface. […] Then, breeding was made in a greenhouse. At the 30th day from the treatment, the herbicidal effect of each wettable powder was examined in accordance with the standard shown in Table 40.

[8] = test system: Monochoria vaginalis Presl (Mo); assay: Test for herbicidal effect during breeding period by paddy field water treatment (Test Example 5), Mo; settings: paddy field water treatment at 1-leaf stage, 25 g/10 a active ingredient, 30th day
Method: as §4

[9] = 100 g/10 a active ingredient, examined at 21st day
[10] = application amount (active ingredient) 100 g/10 a, examined at the 21st day from the treatment, index per Table 40

Structure (SMILES) | Herbicidal effect to Ec [1, 9] | Herbicidal effect to Eo [2] | Herbicidal effect to Po [3] | Herbicidal effect to Se [4, 9] | Herbicidal effect to Ch [5] | Herbicidal effect to Ec [6] | Herbicidal effect to Sc [7] | Herbicidal effect to Mo [8] | Herbicidal effect to Ec [1, 10] | Herbicidal effect to Se [4, 10]
CC1(C)CC(S(=O)(=O)Cc2c(F)cccc2OC(F)F)=NO1 [Compound 1-573] | 5 (A herbicidal effect or phytotoxicity of 90% or more) | 5 (A herbicidal effect or phytotoxicity of 90% or more) | 5 (A herbicidal effect or phytotoxicity of 90% or more) | 5 (A herbicidal effect or phytotoxicity of 90% or more) | 5 (A herbicidal effect or phytotoxicity of 90% or more) | 5 (A herbicidal effect or phytotoxicity of 90% or more) | – | – | – | –
CC1(C)CC(S(=O)(=O)Cc2c(F)cccc2[N+](=O)[O-])=NO1 [Compound 1-499] | 5 (A herbicidal effect or phytotoxicity of 90% or more) | 5 (A herbicidal effect or phytotoxicity of 90% or more) | 5 (A herbicidal effect or phytotoxicity of 90% or more) | 5 (A herbicidal effect or phytotoxicity of 90% or more) | 4 (A herbicidal effect or phytotoxicity of 70% to less than 90%) | 5 (A herbicidal effect or phytotoxicity of 90% or more) | – | – | – | –
CCc1ccccc1CS(=O)(=O)C1=NOC(C)(CCl)C1 (centres unmarked) [Comparative compound 1, reference compound] | – | – | – | – | – | – | 1 (A herbicidal effect or phytotoxicity of 10% to less than 30%) | 1 (A herbicidal effect or phytotoxicity of 10% to less than 30%) | – | –
COC(=O)c1cccc(F)c1CS(=O)(=O)C1=NOC(C)(C)C1 [Compound 1-555] | 5 (A herbicidal effect or phytotoxicity of 90% or more) | 5 (A herbicidal effect or phytotoxicity of 90% or more) | 5 (A herbicidal effect or phytotoxicity of 90% or more) | 5 (A herbicidal effect or phytotoxicity of 90% or more) | 4 (A herbicidal effect or phytotoxicity of 70% to less than 90%) | 4 (A herbicidal effect or phytotoxicity of 70% to less than 90%) | – | – | – | –
Cc1cc(C)cc(CS(=O)(=O)C2=NOC(C)(C)C2)c1 [Compound 1-523] | 5 (A herbicidal effect or phytotoxicity of 90% or more) | 5 (A herbicidal effect or phytotoxicity of 90% or more) | 5 (A herbicidal effect or phytotoxicity of 90% or more) | 5 (A herbicidal effect or phytotoxicity of 90% or more) | 5 (A herbicidal effect or phytotoxicity of 90% or more) | 5 (A herbicidal effect or phytotoxicity of 90% or more) | – | – | – | –
CC1CC(S(=O)(=O)Cc2c(F)cccc2F)=NO1 (centres unmarked) [Compound 1-532] | 5 (A herbicidal effect or phytotoxicity of 90% or more) | 5 (A herbicidal effect or phytotoxicity of 90% or more) | 5 (A herbicidal effect or phytotoxicity of 90% or more) | 4 (A herbicidal effect or phytotoxicity of 70% to less than 90%) | 5 (A herbicidal effect or phytotoxicity of 90% or more) | 4 (A herbicidal effect or phytotoxicity of 70% to less than 90%) | – | – | – | –
COc1cccc(F)c1CS(=O)(=O)C1=NOC(C)(C)C1 [Compound 1-534] | 5 (A herbicidal effect or phytotoxicity of 90% or more) | 5 (A herbicidal effect or phytotoxicity of 90% or more) | 5 (A herbicidal effect or phytotoxicity of 90% or more) | 5 (A herbicidal effect or phytotoxicity of 90% or more) | 5 (A herbicidal effect or phytotoxicity of 90% or more) | 5 (A herbicidal effect or phytotoxicity of 90% or more) | – | – | – | –
CCOc1cccc(F)c1CS(=O)(=O)C1=NOC(C)(C)C1 [Compound 1-526] | 5 (A herbicidal effect or phytotoxicity of 90% or more) | 5 (A herbicidal effect or phytotoxicity of 90% or more) | 5 (A herbicidal effect or phytotoxicity of 90% or more) | 5 (A herbicidal effect or phytotoxicity of 90% or more) | 5 (A herbicidal effect or phytotoxicity of 90% or more) | 5 (A herbicidal effect or phytotoxicity of 90% or more) | – | – | – | –
CC1(C)CC(S(=O)(=O)Cc2cc(F)ccc2F)=NO1 [Compound 1-498] | 5 (A herbicidal effect or phytotoxicity of 90% or more) | 5 (A herbicidal effect or phytotoxicity of 90% or more) | 5 (A herbicidal effect or phytotoxicity of 90% or more) | 5 (A herbicidal effect or phytotoxicity of 90% or more) | 5 (A herbicidal effect or phytotoxicity of 90% or more) | 5 (A herbicidal effect or phytotoxicity of 90% or more) | – | – | – | –
CC1(C)CC(S(=O)(=O)Cc2ccccc2Cl)=NO1 [Compound 1-2] | – | 5 (A herbicidal effect or phytotoxicity of 90% or more) | – | – | 4 (A herbicidal effect or phytotoxicity of 70% to less than 90%) | 4 (A herbicidal effect or phytotoxicity of 70% to less than 90%) | – | – | 5 (A herbicidal effect or phytotoxicity of 90% or more) | 5 (A herbicidal effect or phytotoxicity of 90% or more)
CC1(C)CC(S(=O)(=O)Cc2c(F)ccc(F)c2F)=NO1 [Compound 1-501] | 5 (A herbicidal effect or phytotoxicity of 90% or more) | 5 (A herbicidal effect or phytotoxicity of 90% or more) | 5 (A herbicidal effect or phytotoxicity of 90% or more) | 5 (A herbicidal effect or phytotoxicity of 90% or more) | 5 (A herbicidal effect or phytotoxicity of 90% or more) | 5 (A herbicidal effect or phytotoxicity of 90% or more) | – | – | – | –
CC1(CCl)CC(S(=O)(=O)Cc2ccccc2F)=NO1 (centres unmarked) [Comparative compound 2, reference compound] | – | – | – | – | – | – | 1 (A herbicidal effect or phytotoxicity of 10% to less than 30%) | 1 (A herbicidal effect or phytotoxicity of 10% to less than 30%) | – | –
CCCOc1ccccc1CS(=O)(=O)C1=NOC(C)(C)C1 [Compound 1-46] | – | 5 (A herbicidal effect or phytotoxicity of 90% or more) | 5 (A herbicidal effect or phytotoxicity of 90% or more) | – | 4 (A herbicidal effect or phytotoxicity of 70% to less than 90%) | 4 (A herbicidal effect or phytotoxicity of 70% to less than 90%) | – | – | 5 (A herbicidal effect or phytotoxicity of 90% or more) | 5 (A herbicidal effect or phytotoxicity of 90% or more)
O=S(=O)(Cc1c(F)cccc1F)C1=NOC2(CCC2)C1 [Compound 1-382] | – | 5 (A herbicidal effect or phytotoxicity of 90% or more) | – | – | – | – | 4 (A herbicidal effect or phytotoxicity of 70% to less than 90%) | 5 (A herbicidal effect or phytotoxicity of 90% or more) | 5 (A herbicidal effect or phytotoxicity of 90% or more) | 5 (A herbicidal effect or phytotoxicity of 90% or more)
CC1(C)CC(S(=O)(=O)Cc2c(F)cc(F)cc2F)=NO1 [Compound 1-500] | 5 (A herbicidal effect or phytotoxicity of 90% or more) | 5 (A herbicidal effect or phytotoxicity of 90% or more) | 5 (A herbicidal effect or phytotoxicity of 90% or more) | 5 (A herbicidal effect or phytotoxicity of 90% or more) | 4 (A herbicidal effect or phytotoxicity of 70% to less than 90%) | 5 (A herbicidal effect or phytotoxicity of 90% or more) | – | – | – | –
